Earlier results in patent publication US20240108579A1, “UTIDELONE LIPOSOME COMPOSITION, AND PREPARATION METHOD THEREFOR AND USE THEREOF” (Chengdu Biostar Pharmaceuticals, LTD., priority 2021, published 2024).
Where two headings read alike, the source gives them in different places.

## CC1=CCC(C(C)=Cc2csc(C)n2)OC(=O)CC(O)C(C)(C)C(=O)C(C)C(O)C(C)CCC1 (stereo not drawn) [Utidelone, 4,8-dihydroxy-5,5,7,9,13-pentamethyl-16-[1-methyl-2-(2-methyl-thiazole-4-yl)-vinyl]-hexadecoxetane-13-en-2,6-one lactone]
ethanol, methanol, ethyl acetate, and chloroform
  solubility (in words): easily soluble
water
  saturated solubility in water: less than 1 μg/ml
  solubility (in words): insoluble
